According to PubChem BioAssay (NCI):
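Cells were grown in 96-well plates and exposed to each compound for 48 hours at five concentrations; endpoints were interpolated linearly between bracketing concentrations, or set to the highest concentration if not reached. At the GI50, growth is halved. The concentration for full growth arrest is given as TGI.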

Assays:
Assay in all cases: inhibition of tumour cell growth, NCI panel, 48 h
[1] = system: CCRF-CEM leukemia
[2] = system: DMS 273 small cell lung
[3] = system: HL-60(TB) leukemia
[4] = system: HOP-92 NSCLC
[5] = system: KM20L2 colon
[6] = system: SF-539 CNS
[7] = system: SK-MEL-28 melanoma
[8] = system: SNB-19 CNS
[9] = system: UACC-62 melanoma
[10] = system: OVCAR-3 ovarian

SMILES | TGI [1] [µM] | TGI [2] [µM] | TGI [3] [µM] | TGI [4] [µM] | TGI [5] [µM] | TGI [6] [µM] | TGI [7] [µM] | TGI [8] [µM] | TGI [9] [µM] | TGI [10] [µM] | GI50 [1] [µM] | GI50 [2] [µM] | GI50 [3] [µM] | GI50 [4] [µM] | GI50 [5] [µM] | GI50 [10] [µM] | GI50 [6] [µM] | GI50 [7] [µM] | GI50 [8] [µM] | GI50 [9] [µM]
COC(=O)c1nn(C(=N)c2ccc(Cl)cc2)c2c1CCCCC2 | > 100 | > 100 | > 100 | > 100 | > 100 | > 100 | > 100 | > 100 | > 100 | – | – | – | – | – | – | – | – | – | – | –
CCOC(=O)/C(C#N)=C(N)/C(=N\Nc1cccc(C(F)(F)F)c1)C(=O)OCC | > 100 | > 100 | > 100 | > 100 | > 100 | > 100 | > 100 | > 100 | > 100 | > 100 | – | – | – | – | – | – | – | – | – | –
O=c1cccccc1NCCNc1cccccc1=O | > 100 | > 100 | > 100 | > 100 | > 100 | > 100 | – | > 100 | > 100 | > 100 | – | – | – | – | – | – | – | – | – | –
CNC(C)Cc1ccc(O)cc1 (configuration not stated) | > 100 | > 100 | > 100 | > 100 | > 100 | > 100 | > 100 | > 100 | > 100 | > 100 | – | – | – | – | – | – | – | – | – | –
N[C@H](C(=O)O)[C@@H](Cl)CC(=O)O | > 100 | > 100 | > 100 | > 100 | > 100 | > 100 | > 100 | > 100 | > 100 | > 100 | – | – | – | – | – | – | – | – | – | –
C/C=C/C(=O)[O-].N.N.N.N.N.[Co+3].[O-][Cl+3]([O-])([O-])[O-] | > 100 | > 100 | > 100 | > 100 | > 100 | > 100 | > 100 | > 100 | > 100 | > 100 | > 100 | > 100 | > 100 | > 100 | > 100 | > 100 | > 100 | > 100 | > 100 | > 100
COc1cc2c3c(c1OC)Oc1ccc(cc1)CC1c4c(cc(OC)c(OC)c4Oc4ccc(cc4)CC3N(C)CC2)CCN1C (configuration not stated) | 55.1 | 37.2 | 34.1 | > 100 | 45.2 | 28 | 34.2 | > 100 | 34.9 | 44.7 | – | – | – | – | – | – | – | – | – | –
O=C1C2=C(c3ccccc31)C(c1ccc(Cl)cc1)NC(=S)N2 (configuration not stated) | 54.6 | 42.8 | 37.8 | 41.2 | 37.4 | 29.6 | 34.1 | 96 | 70.9 | 39.6 | – | – | – | – | – | – | – | – | – | –
COC(=O)/C(=N/O)C(C(=O)OC)C(=O)C(=O)Nc1c(Cl)cc(C)cc1S(=O)(=O)O (configuration not stated) | > 100 | 33.2 | > 100 | > 100 | > 100 | > 100 | > 100 | > 100 | > 100 | > 100 | – | – | – | – | – | – | – | – | – | –
Cc1cccc(O)c(=O)c1 | 33.8 | > 100 | 12.1 | > 100 | > 100 | > 100 | > 100 | > 100 | > 100 | > 100 | – | – | – | – | – | – | – | – | – | –
O=C(Nc1ccccc1C(=O)O)C(=O)C(C(=O)c1ccccc1-c1ccccc1)C1OC(=O)c2ccccc21 (configuration not stated) | 78.4 | 95.3 | 70.6 | – | 44 | 35.8 | 35.1 | 35.2 | 35.7 | 34.3 | – | – | – | – | – | – | – | – | – | –
